Legend:
[1] = Pharmacokinetic studies, first set (LC-MS, blood and brain); conditions: for half-life: mouse, iv, 34 mg/kg
Method: The chromatographic separation was performed with an HPLC Agilent 1100 instrument and Auto-sampler G 1329A ALS 1200 Series with Frizzier G1330B FC/ALS Therm, at a temperature of 4° C., using a reverse phase Kromasile 100A C18 250×2.0 (5 μm) column at 30° C. under gradient conditions. The mobile phase consisted of two solvents: (A) acetonitrile and (B) 0.5% formic acid in water and was operated under the following conditions:
The MS/MS detector was an Ion Trap MS Esquire 3000 Plus (Bruker Daltonics), operating in the ESI positive polarity mode. The internal standard was 2′-deoxyadenosine 5′-phosphate.
After establishing conditions for the LC-MS as described above, brain homogenate and blood samples were prepared and spiked known concentrations of tenofovir and a fixed concentration of the internal standard into the blood samples and the brain homogenates. The specimens were then processed by adding 180 μL of 10% Tri Chloro Acetic acid (TCA) to 300 μL of the homogenate followed by centrifugation to obtain a clear solution of blood or brain extracts. The supernatant that was obtained by the centrifugation was neutralized with 200 μL of 1% NaOH. The MS signals that were obtained from each sample were plotted as a function of the spiked tenofovir concentration to obtain calibration curves for the blood (FIG. 17A) and for the brain (FIG. 17B).
For the PK studies, vesicles optimized as described above were used for the delivery of tenofovir into the brain. […] The vesicles were prepared by film hydration followed by sonication using a HEPES hydration buffer.
In the first set of the PK experiments, mice (average weight was 22 g per mouse) were injected with vesicles that contained encapsulated tenofovir or with empty vesicles followed by free tenofovir (4 mice per group). […] The dose of the total tenofovir was 34 mg/kg, out of which 6.8 mg/kg was encapsulated (only when encapsulated tenofovir was injected). […] Before the injection of the test material, mice were pretreated with 0.5 mg/kg pyridostigmine to inhibit choline esterases in the blood (unless otherwise stated), since vesicles that contain GLH-20 release their content in presence of choline esterases. At various times after the injection (15, 30, 75, 120 and 240 min), blood samples were withdrawn and the mice were perfused with 10 mL PBS and sacrificed. Brains were immediately removed after sacrificing the mice and brain homogenates were prepared by homogenizing the brains in PBS (4 mL PBS per gram brain). Extracts of the homogenates were then prepared by adding 180 μL of 10% TCA to 300 μL of the homogenate followed by centrifugation to obtain a clear solution of the brain extract. The supernatant that was obtained by the centrifugation was neutralized with 200 μL of 1% NaOH. Tenofovir concentration in the clear brain extract was determined by LC-MS, using the calibration curve which is described above in FIG. 17. The blood samples were centrifuged to separate the serum from the blood cells and processed in the same way as the brain homogenates.

[2] = Pharmacokinetic studies, second set (LC-MS, brain); format: in vivo; conditions: pyrido pretreated mice
Method: Another group of mice were injected with free tenofovir. The total dose of tenofovir that was injected to the mice that received encapsulated tenofovir was […], out of which 7.5 mg/kg was encapsulated tenofovir. The total dose of tenofovir that was injected to the mice that received free tenofovir was 75 mg/kg. All animals were pretreated with 0.5 mg/kg pyrido. Results are mean of 5 mice±SD.
In the second set of the PK studies, all the mice were pretreated with pyrido 15 min prior to the injection of 7.5 mg/kg tenofovir encapsulated in optimal vesicles or with 75 mg/kg free tenofovir with no vesicles.

[3] = Tenofovir encapsulation in bolaamphiphile vesicles (UV absorbance after Sephadex G50 separation); format: physicochemical
Method: Bolaamphiphiles, cholesterol, and CHMES (2:1:1 mole ratio) are dissolved in chloroform or a suitable solvent. […] The solvents are evaporated under vacuum and the resultant thin films are hydrated in 0.2 mg/mL CF solution in PBS and probe-sonicated (Vibra-Cell VCX130 sonicator, Sonics and Materials Inc., Newtown, Conn., USA) with amplitude 20%, pulse on: 15 sec, pulse off: 10 sec to achieve homogenous vesicle dispersions. Vesicle size and zeta potential were determined using a Zetasizer Nano ZS (Malvern Instruments, UK).
Methods were established to determine quantitatively the amount of the encapsulated tenofovir based on a UV absorption and determined the percent of tenofovir encapsulation by various vesicle formulations (data not shown). […] One objective of this work was to achieve the maximum amount of tenofovir encapsulated per vesicle along with a minimum loss of the non-encapsulated drug. Accordingly, several parameters were examined, such as varying the ratio among the vesicle components, changing the ratio of tenofovir to bolaamphiphiles, varying the pH of the hydration solution and also adding to the formulation additional additives, in the attempt to increase the encapsulation capacity of the vesicles.
In particular, in order to maximize tenofovir encapsulation the following parameters were studied: (1) tenofovir to GLH ratio; (2) adjusting the concentrations of cholestyrl hemisuccinate (CHEM) and cholesterol (CHOL), components that are used in the vesicle formulation, (3) examining several buffers and pHs in the encapsulation process, (4) time of sonication, and (5) tenofovir concentration, and (6) addition of stearyl amine to the vesicle formulation to enhance encapsulation by complexation with tenofovir.
The vesicles were prepared from formulations with and without SA and the non-encapsulated tenofovir (free tenofovir) was separated from the encapsulated tenofovir on Sephadex G50 column and the absorbance at 260 nm of each fraction collected from the column was read.

[4] = human subjects treated orally with 300 mg tenofovir; cited from earlier work
[5] = HEPES pH 7.5, GLH 19/20 (2:1) 10 mg/ml, SA 1.25 mg/ml, tenofovir 5 mg/ml, standard CHOL/CHEMS
[6] = HEPES pH 7.5, GLH 19/20 (2:1) 10 mg/ml, SA 2.5 mg/ml, tenofovir 5 mg/ml, standard CHOL/CHEMS
[7] = HEPES pH 7.5, GLH 19/20 (2:1) 10 mg/ml, SA 3.5 mg/ml, tenofovir 5 mg/ml, standard CHOL/CHEMS
[8] = HEPES pH 7.5, GLH 19/20 (2:1) 10 mg/ml, tenofovir 1 mg/ml, standard CHOL/CHEMS
[9] = HEPES pH 7.5, GLH 19/20 (2:1) 10 mg/ml, tenofovir 2 mg/ml, ½ the standard amount of cholesterol and cholesteryl hemisuccinate
[10] = HEPES pH 7.5, GLH 19/20 (2:1) 15 mg/ml, SA 2.5 mg/ml, tenofovir 5 mg/ml, standard CHOL/CHEMS
[11] = HEPES pH 7.5, GLH 19/20 (2:1) 15 mg/ml, tenofovir 1 mg/ml, standard CHOL/CHEMS
[12] = HEPES pH 7.5, GLH 19/20 (2:1) 15 mg/ml, tenofovir 2 mg/ml, ½ the standard amount of cholesterol and cholesteryl hemisuccinate
[13] = HEPES pH 8, GLH 19/20 (2:1) 15 mg/ml, SA 2.5 mg/ml, tenofovir 5 mg/ml, standard CHOL/CHEMS
[14] = HEPES pH 8, GLH 19/20 (2:1) 15 mg/ml, tenofovir 1 mg/ml, standard CHOL/CHEMS
[15] = TRIS pH 8, GLH 19/20 (2:1) 10 mg/ml, SA 2.5 mg/ml, tenofovir 5 mg/ml, standard CHOL/CHEMS
[16] = TRIS pH 8, GLH 19/20 (2:1) 10 mg/ml, tenofovir 1 mg/ml, standard CHOL/CHEMS
[17] = TRIS pH 8, GLH 19/20 (2:1) 10 mg/ml, tenofovir 2 mg/ml, standard CHOL/CHEMS
[18] = TRIS pH 8, GLH 19/20 (2:1) 10 mg/ml, tenofovir 5 mg/ml, standard CHOL/CHEMS
[19] = TRIS pH 8, GLH 19/20 (2:1) 20 mg/ml, tenofovir 5 mg/ml, standard CHOL/CHEMS

With `C[C@H](Cn1cnc2c(N)ncnc21)OCP(=O)(O)O` [tenofovir, ({[(2R)-1-(6-amino-9H-purin-9-yl)propan-2-yl]oxy}methyl)phosphonic acid] the “tenofovir concentration in the brain” value ([1]; mice injected with empty vesicles and then free tenofovir) was “not detected”, the half-life ([1]; brain, apparent half-life of tenofovir in the brain, mice pretreated with pyrido, tenofovir encapsulated in GLH-19 + GLH-20 vesicles, i.v.) was roughly 40 min and the half-life ([1]; serum, actual half-life of the encapsulated tenofovir in the blood, inferred, encapsulated tenofovir only 20% of injected) was greater than 20 min. The half-life ([1]; serum, half-life of tenofovir in the blood (apparent), mice i.v., total tenofovir 34 mg/kg of which 6.8 mg/kg encapsulated, reflects free and encapsulated tenofovir) was roughly 20 min, the “persistence of tenofovir in the brain” value ([1]; tenofovir encapsulated in GLH-19 vesicles, i.v. mice) was “did not persist long in the brain” and the “concentration of tenofovir in the brain” value ([2]; 7.5 mg/kg tenofovir encapsulated in optimized V-Smart vesicles, all time points up to 2 hours, vs estimated therapeutic threshold) was greater than 0.1 µg/mL. The “concentrations of tenofovir in the brain” value ([2]; free drug 75 mg/kg, no vesicles, detection limit 40 ng/ml) was “below the measurable level”, the concentration at 60 min ([2]; mouse, brain, intravenous, 7.5 mg/kg encapsulated in optimized V-Smart vesicles, 60 min after the injection, read-out: concentration of tenofovir in the brain) was roughly 1 µg/mL and the concentration at 15 min ([2]; mouse, brain, intravenous, 7.5 mg/kg encapsulated in optimized V-Smart vesicles, after 15 min, read-out: concentration of tenofovir in the brain) was greater than 6000 ng/g. The “% tenofovir encapsulation” value [3, 5] was 15.9%, the “Ratio of tenofovir encapsulated to bolaamphiphiles” value (shortened to “Ratio of tenofovir encapsulated”) [3, 5] was 0.062 mg/mg and the “% tenofovir encapsulation” value [3, 6] was 21.4%. The “Ratio of tenofovir encapsulated” value [3, 6] was 0.107 mg/mg, the “% tenofovir encapsulation” value ([3]; HEPES pH 7.5, GLH 19/20 (2:1) 10 mg/ml, SA 2.5 mg/ml, tenofovir 5 mg/ml, ½ the standard amount of cholesterol and cholesteryl hemisuccinate) was “**22%” and the “% tenofovir encapsulation” value [3, 7] was 30.9%. The “Ratio of tenofovir encapsulated” value [3, 7] was 0.155 mg/mg, the “% tenofovir encapsulation” value [3, 8] was 17.4% and the “mg tenofovir encapsulated/mg bola” value [3, 8] was 0.026 mg tenofovir encapsulated/mg bola. The “mg tenofovir encapsulated/mg bola” value ([3]; HEPES pH 7.5, GLH 19/20 (2:1) 10 mg/ml, tenofovir 2 mg/ml, standard CHOL/CHEMS) was 0.024 mg tenofovir encapsulated/mg bola, the “% tenofovir encapsulation” value [3, 9] was “**16.5%” and the “mg tenofovir encapsulated/mg bola” value [3, 9] was “**0.033 mg tenofovir encapsulated/mg bola”. The “% tenofovir encapsulation” value ([3]; HEPES pH 7.5, GLH 19/20 (2:1) 10 mg/ml, tenofovir 5 mg/ml, standard CHOL/CHEMS) was 7.8%, the “% tenofovir encapsulation” value ([3]; HEPES pH 7.5, GLH 19/20 (2:1) 10 mg/ml, tenofovir 7.5 mg/ml, standard CHOL/CHEMS) was 3.8% and the “% tenofovir encapsulation” value [3, 10] was 18.6%. The “Ratio of tenofovir encapsulated” value [3, 10] was 0.08 mg/mg, the “% tenofovir encapsulation” value [3, 11] was 38.6% and the “mg tenofovir encapsulated/mg bola” value [3, 11] was 0.026 mg tenofovir encapsulated/mg bola. For the same compound, the “% tenofovir encapsulation” value ([3]; HEPES pH 7.5, GLH 19/20 (2:1) 15 mg/ml, tenofovir 2 mg/ml, standard CHOL/CHEMS) was 18.4, %, the “% tenofovir encapsulation” value [3, 12] was “**22.5%” and the “mg tenofovir encapsulated/mg bola” value [3, 12] was “**0.033 mg tenofovir encapsulated/mg bola”. The “% tenofovir encapsulation” value [3, 13] was 23%, the “Ratio of tenofovir encapsulated” value [3, 13] was 0.077 mg/mg and the “% tenofovir encapsulation” value [3, 14] was 31.2%. The “mg tenofovir encapsulated/mg bola” value [3, 14] was 0.021 mg tenofovir encapsulated/mg bola, the “% tenofovir encapsulation” value ([3]; TRIS pH 8, GLH 19/20 (2:1) 5 mg/ml, tenofovir 1 mg/ml in hydration solution, standard CHOL/CHEMS) was 4% and the “mg tenofovir encapsulated/mg bola” value ([3]; TRIS pH 8, GLH 19/20 (2:1) 5 mg/ml, tenofovir 1 mg/ml, standard CHOL/CHEMS) was 0.008 mg tenofovir encapsulated/mg bola. The “% tenofovir encapsulation” value [3, 15] was 12.7%, the “Ratio of tenofovir encapsulated” value [3, 15] was 0.064 mg/mg and the “% tenofovir encapsulation” value [3, 16] was 11%. For the same compound, the “mg tenofovir encapsulated/mg bola” value [3, 16] was 0.011 mg tenofovir encapsulated/mg bola, the “% tenofovir encapsulation” value [3, 17] was 9% and the “mg tenofovir encapsulated/mg bola” value [3, 17] was 0.018 mg tenofovir encapsulated/mg bola. The “% tenofovir encapsulation” value [3, 18] was 6%, the “mg tenofovir encapsulated/mg bola” value [3, 18] was 0.03 mg tenofovir encapsulated/mg bola and the “mg tenofovir encapsulated/mg bola” value ([3]; TRIS pH 8, GLH 19/20 (2:1) 15 mg/ml, tenofovir 1 mg/ml, standard CHOL/CHEMS) was 0.016 mg tenofovir encapsulated/mg bola. For the same compound, the “% tenofovir encapsulation” value ([3]; TRIS pH 8, GLH 19/20 (2:1) 15 mg/ml, tenofovir 1 mg/ml, standard CHOL/CHEMS, ±SEM) was 24.5 ± 2.1%, the “mg tenofovir encapsulated/mg bola” value ([3]; TRIS pH 8, GLH 19/20 (2:1) 15 mg/ml, tenofovir 2 mg/ml, standard CHOL/CHEMS) was 0.03 mg tenofovir encapsulated/mg bola and the “% tenofovir encapsulation” value ([3]; TRIS pH 8, GLH 19/20 (2:1) 15 mg/ml, tenofovir 2 mg/ml, standard CHOL/CHEMS, ±SEM) was 21 ± 2.1%. The “mg tenofovir encapsulated/mg bola” value ([3]; TRIS pH 8, GLH 19/20 (2:1) 15 mg/ml, tenofovir 5 mg/ml, standard CHOL/CHEMS) was 0.03 mg tenofovir encapsulated/mg bola, the “% tenofovir encapsulation” value ([3]; TRIS pH 8, GLH 19/20 (2:1) 15 mg/ml, tenofovir 5 mg/ml, standard CHOL/CHEMS, ±SEM) was 9 ± 1.4% and the “mg tenofovir encapsulated/mg bola” value ([3]; TRIS pH 8, GLH 19/20 (2:1) 20 mg/ml, tenofovir 1 mg/ml, standard CHOL/CHEMS) was 0.02 mg tenofovir encapsulated/mg bola. For the same compound, the “% tenofovir encapsulation” value ([3]; TRIS pH 8, GLH 19/20 (2:1) 20 mg/ml, tenofovir 1 mg/ml, standard CHOL/CHEMS, ±SEM) was 31.4 ± 4.5%, the “mg tenofovir encapsulated/mg bola” value ([3]; TRIS pH 8, GLH 19/20 (2:1) 20 mg/ml, tenofovir 2 mg/ml, standard CHOL/CHEMS) was 0.022 mg tenofovir encapsulated/mg bola and the “% tenofovir encapsulation” value ([3]; TRIS pH 8, GLH 19/20 (2:1) 20 mg/ml, tenofovir 2 mg/ml, standard CHOL/CHEMS, ±SEM) was 22.5 ± 3.5%. For the same compound, the “% tenofovir encapsulation” value [3, 19] was 9.3%, the “mg tenofovir encapsulated/mg bola” value [3, 19] was 0.023 mg tenofovir encapsulated/mg bola and the “% of the added tenofovir encapsulated” value ([3]; optimal formulation for PK: 10 mg GLH 19/20 2/1, 1 mg GLH-55b, 2.5 mg stearyl amine, 5 mg tenofovir per mL, HEPES) was 20%. For the same compound, the “amount of the encapsulated tenofovir” value ([3]; optimal formulation used in first set of PK experiments) was 1 mg/mL vesicles, the “percent of tenofovir encapsulation” value ([3]; various vesicle formulations, conditions that yielded maximum encapsulation (before optimization)) was 18-20% and the “blood concentration of tenofovir” value [4] was “about 500 ng/ml”.

— patent publication US11304964B2, “Bolaamphiphilic compounds, compositions and uses thereof” (priority 2012, dated 2022)
